We go through one substance from patent publication US20260097138A1, “BIOMATERIAL COATED NANOSTRUCTURES FOR PHOTOACOUSTIC IMAGING AND PHOTOTHERMAL THERAPY OF TUMOR LESIONS” (OSPEDALE SAN RAFFAELE S.R.L., priority 2022, published 2026).

For one series, the system named is 5637 cells. As to the kind of experiment: Cell adhesion assay on coated microtiter plates. The following applies: crystal violet stain. Type of series: cell-based, human. Here is the method:
(§1) The plates were washed and blocked with 2% BSA in DMEM or RPMI-1640 (200 μl/well, 1 h). MB49-Luc and 5637 cells were detached with DPBS-E, washed twice with DPBS, and suspended in DMEM or RPMI-1640 containing 0.1% BSA (binding buffer-3), and added to the coated-plates (1.5×10^5 cells/well, 100 μl). After 1-2 h of incubation at 37° C., 5% CO2, the plates were washed with binding buffer-3. Adherent cells were fixed and stained with 0.5% crystal violet in 20% methanol. After washing with water, the dye was extracted from cells using a 10% acetic acid solution (140 μl/well) and the absorbance at 570 nm was measured using a microplate reader.

A short description of series [1]: In vitro PAI of GNRs in agar drops. The following applies: agar drop, no IL. An excerpt:
(§2) US and PAI of GNRs@Chit and GNRs@Chit-Iso4: High-resolution US and PA imaging have been acquired using the Vevo LAZR-X platform (FUJIFILM VisualSonics, Inc., Toronto, ON, Canada). The imaging platform includes a high frequency US system (Vevo 3100) combined with an Nd:YAG nano-second pulsed laser with repetition rate of 20 Hz. The linear US transducer array Mx 550D consists of 256 elements with a nominal center frequency of 40 MHz (25-55 MHz bandwidth) and a spatial resolution of 40 μm with a maximum imaging depth of 15 mm. Light from the laser is delivered to the tissue through optical fibers mounted on either side of the transducer. During volumetric US-PA acquisitions, a stepper motor is used for the linear translation of the US transducer and optical fibers along the sample. The linear stepper motor moves in steps of a minimum of 0:1 mm while capturing 2-D parallel images, for a maximum 3D range distance of 6.4 cm.
(§3) 3D B mode scan was carried out for in vitro (drop) and in vivo (mouse bladder) studies. […]
In vitro PAI of GNRs was carried out as follows: GNRs (30 μl in DPBS with calcium and magnesium) were mixed with a 1% agar solution (30 μl), the mixture was then poured on Parafilm® M (Sigma) and left to solidify in a humidified chamber (FIG. 15). […] PA and US data have been analyzed using VevoLab 3.2.5 software (FIG. 15).

Series [2] is described as follows: In vivo PAI of murine bladder after intravesical instillation. More on the design: species or system mice. The following applies: three cycles of manual handling, two washes.
Excerpt: as §2, §3

Series [3] is described as follows: Physicochemical characterization of GNRs (VIS-NIR, TEM, zeta potential). Here is the method:
Characterization of the physicochemical properties of GNRs@CTAB, GNRs@Chit and functionalized GNRs@Chit-Iso4: Gold concentration was determined by flame atomic absorption spectroscopy (FAAS) using a SpectraAA 100 Varian spectrometer (Agilent Technologies, Santa Clara, USA). Gold nanorods (100 μL) were dissolved in aqua regia (3 mL) and diluted to 10 mL with ultrapure water prior to analysis. For the calibration of the FAAS analysis, Au standard solutions at 1, 2, 5 and 10 mg/L were prepared by diluting the appropriate amounts of […] TraceCERT® solutions in 30% aqua regia.
VIS-NIR absorption spectra (range 400-1100 nm) were recorded using a Cary 3500 UV-VIS-NIR modular spectrometer (Agilent Technologies, Santa Clara, USA) using a 1 cm path-length plastic cuvette.
Transmission Electron Microscopy (TEM) was performed using a TEM/STEM FEI TECNAI F20 operating at 200 keV equipped with a probe for energy-dispersing x-ray spectroscopy (EDX), selected-area electron diffraction (SAED) and High Angle Annular Dark Field Detector (HAADF). Before the analysis, samples were placed on a continuous-carbon film, supported on a copper grid and dried at 120° C.
Zeta potential measurements were performed using a Zetasizer-nano-S (Malvern Panalytical, Malvern, UK) in DTS1060C-Clear disposable zeta cells, at 25° C.

Series [4] deals with MB49-Luc derived orthotopic bladder tumor. As to the kind of experiment: PAI of orthotopic MB49-Luc bladder tumor after intravesical instillation. Type of series: in vivo, mice. The conditions noted are these: for detection of lesions undetectable by US imaging: small orthotopic tumor. Here is the method:
Murine orthotopic bladder tumor model: All procedures and studies involving mice were approved by the Institutional Animal Care and Use Committee of San Raffaele Scientific Institute and performed according to the prescribed guidelines (IACUC, approval number 942). Female albino C57BL/6J mice (9 weeks old, weighing about 20 g, Charles River Laboratories, Italy) were anesthetized with ketamine (80 mg/kg) and xylazine (15 mg/kg) and kept in dorsal position. Using a 24-gauge catheter, the bladder of each mouse was emptied and instilled with or without MB49-Luc cells (10^5 cells/100 μl in DPBS). Thirty minutes later the catheter was removed, and mice were allowed to recover and returned to their cage. Tumor growth was monitored by measuring the tumor volume through US imaging (see below) and in vivo bioluminescent quantification after administration of luciferin (15 mg/kg, intra peritoneum) using the non-invasive In Vivo Imaging System (IVIS, PerkinElmer, USA).
as §2
3D B mode scan was carried out for in vitro (drop) and in vivo (mouse bladder) studies. The photoacoustic spectra between 680 nm and 970 nm were scanned with a step size of 5 nm; for the in vivo studies (murine bladder) the 3D multispectral PA scans were acquired selecting PA spectral curve of tissue components melanin, deoxy- and oxy-generated blood, and GNRs; the processed wavelengths (680; 722; 764; 810; 924; 970 nm) were automatically selected from the spectral curve used to spectrally unmix the GNRs signal from other endogenous tissue chromophore signals such as oxy, deoxy hemoglobin. The algorithm reported by Luke et al was used to select these wavelengths which is ideal for separating the signal from GNRs from other endogenous absorbers.
Data analyses were conducted using the Vevo® Lab software; volumes of interest were obtained by manually drawing Volumes of Interest (VOIs) on 3D B-mode images. GNRs, melanin, oxy- and deoxy-hemoglobin content were estimated through spectral unmixing analyses of the spectroscopic data.

Series [5] can be described thus: Stability of GNRs in human urine. Type of series: physicochemical. The conditions noted are these: 37° C. Here is the method: Stability of GNRs@Chit and GNRs@Chit-Iso4 in human urine: The stability of GNRs@Chit-Iso4 in human urine was assessed by diluting the GNR solution (0.725 mM of Au in 10 ml of water) with human urine samples (10 ml) collected from 10 healthy adult volunteers (4 males and 6 females) and placed under stirring in a water bath at 37° C. At various time points, 1 mL of the mixture was withdrawn, diluted in 10 mL of cold water (+4° C.) and subjected to VIS-NIR. A urine solution (50% in water) was used as the blank reference in the spectrometric analysis.

The test system of the next series is MB49-Luc cells. As to the kind of experiment: Cell adhesion assay on coated microtiter plates. Type of series: cell-based, murine. Here is the method:
as §1

Values joined by “and” are separate entries in the source; they are usually repeats but may differ in a detail not shown here. Equal entries are not always repeated.

For “GNRs@Chit-Iso4: gold nanorods coated with thiolated chitosan, coupled via NHS-PEG12-maleimide crosslinker to the Iso4 peptide”, the “cell adhesion to solid phase coated with the substance” value in the series with 5637 cells was “induced cell adhesion and spreading”; with MB49-Luc cells (MB49-Luc cells, crystal violet stain), “induced cell adhesion and spreading”. In addition, the “behaviour under pulsed laser with light attenuators without IL” value in series [1] is reported as “underwent reshaping”. For the same substance, in series [2], the “binding in healthy mice” value is recorded as “no binding”. In series [3] (TEM), the GNRs length is 90.2±7.2 nm and 90.2 ± 7.2d nm. The GNRs width in series [3] (TEM) was 24.9±2.6 nm and 24.9 ± 2.6d nm. For the same substance, in series [3] (VIS-NIR), the “λmax (wavelength of max absorbance, longitudinal-LSPR peak)” value is 802 nm. For the same substance, in series [3] (calculated as the length/width ratio), the “Aspect Ratio” value was 3.62±0.67 and 3.6 ± 0.6. Moreover, the “PA signal at tumor without manual handling of urine” value in series [4] (3 nmol Au, two washing steps, tumor on the left side) was “lack of PA signal”. Also, the “volume of small tumor detected” value in series [4] (4 days after MB49-Luc cell implantation) was 7.9 mm^3. The “detection of lesions undetectable by US imaging” value in series [4] was “can reveal the presence of lesions undetectable with US imaging and bioluminescence”; in series [4] (listed as GNR@Chit-Iso4) it was “a neoplastic region in the upper region of the bladder that was undetectable by US scan”. Moreover, in series [4] (well-established tumor, three cycles of manual handling, two washes), the “binding in tumor bearing mice by PAI” value is “to the three well-established neoplastic lesions at the bottom, lateral side and upper part of the bladder, and not present in non-neoplastic tissue”. In addition, the “incubation time in urine without dramatic loss of optical properties in the NIR” value in series [5] is reported as “at least 2 h”. In addition, in series [5] (human urine, first 40 minutes), the “reduction of the absorbance at ~800 nm” value was found to be 14%. Further, the “further reduction of the absorbance at ~800 nm” value in series [5] (human urine, following 80 minutes) came to 7%. In series [5] (human urine, up to 2 h), the “change in the shape of the LSPR spectrum” value was “No significant change”. For the same substance, in the series with MB49-Luc cells (MB49-Luc cells in DMEM medium containing 25-75% urine), the “increase of cell adhesion caused by urine” value is listed as ~20%.
